Laboratory results published in the NIST ThermoML archive (doi:10.1016/j.fluid.2015.12.032).
± gives the expanded uncertainty stated by the source.

Settings: 101.33 kPa, Liquid, Falling or rolling sphere viscometry

`CCCC[N+]1(C)CCOCC1.N#C[C-](C#N)C#N` [4-butyl-4-methylmorpholinium tricyanomethanide] gave a viscosity (288.15 K) of 500.4 ± 47 mPa·s, a viscosity (298.15 K) of 225.5 ± 17 mPa·s and a viscosity (308.15 K) of 118.4 ± 8 mPa·s. For the same compound, the viscosity (318.15 K) was 69.89 ± 4.4 mPa·s, the viscosity (328.15 K) was 44.14 ± 2.8 mPa·s and the viscosity (338.15 K) was 30.31 ± 1.9 mPa·s. For the same compound, the viscosity (348.15 K) was 21.9 ± 1.4 mPa·s, the viscosity (358.15 K) was 16.33 ± 1 mPa·s and the viscosity (368.15 K) was 12.77 ± 0.79 mPa·s.
